In ChEMBL document CHEMBL5244213, “Current advances in drug discovery for Chagas disease” (Eur J Med Chem, 2018):

Tests used:
[1] = Selectivity index, ratio of IC50 for cytotoxicity against mouse J774.1 cells to IC50 for antitrypanosomal activity against Trypanosoma cruzi Tulahuen 2 […]; format: toxicity, cell-based; conditions: read-out: Ratio IC50
Trypanosoma cruzi [2] = assay: Antitrypanosomal activity against Trypanosoma cruzi Tulahuen 2 intracellular epimastigotes assessed as viability of […] measured after 5 days by absorbance based analysis; format: functional, organism-based; conditions: Tulahuen 2, 120 h
Trypanosoma cruzi [3] = assay: Antitrypanosomal activity against Trypanosoma cruzi Y […] transfected in African green monkey Vero cells assessed as inhibition of […] viability measured after 48 hrs by DAPI staining based fluorescence microscopic assay; format: functional, organism-based
Trypanosoma cruzi [4] = assay: Antitrypanosomal activity against Trypanosoma cruzi Tulahuen CL2 intracellular amastigotes transfected in human MRC5 cells assessed as inhibition of intracellular amastigotes viability using […] substrate measured after 7 days by chlorophenol red […] staining based analysis; format: functional, organism-based; conditions: Tulahuen CL2, MRC5, 168 h
Trypanosoma cruzi [5] = assay: Antitrypanosomal activity against Trypanosoma cruzi […] assessed as inhibition of […] viability; format: functional, organism-based
Trypanosoma cruzi [6] = assay: Antitrypanosomal activity against Trypanosoma cruzi Y intracellular amastigotes assessed as inhibition of intracellular amastigotes viability at 10 uM measured after 72 hrs relative to control; format: functional
[7] = Selectivity index, ratio of IC50 for cytotoxicity against African green monkey Vero cells to IC50 for antitrypanosomal activity against Trypanosoma cruzi X-10 intracellular amastigotes transfected in African green monkey Vero cells; format: toxicity, cell-based; conditions: read-out: Ratio IC50
Trypanosoma cruzi [8] = assay: Antitrypanosomal activity against Trypanosoma cruzi Sylvio X-10 intracellular amastigotes transfected in African green monkey Vero cells assessed as inhibition of intracellular amastigotes viability measured after 72 hrs by giemsa-staining based analysis; format: functional, organism-based; conditions: Sylvio X-10, Vero
[9] = Selectivity index, ratio of IC50 for cytotoxicity against monkey LLC-MK2 cells to IC50 for antitrypanosomal activity against Trypanosoma cruzi Y […] transfected in monkey LLC-MK2 cells; format: toxicity, cell-based; conditions: read-out: Ratio IC50
[10] = Selectivity index, ratio of IC50 for cytotoxicity against monkey LLC-MK2 cells to IC50 for antitrypanosomal activity against Trypanosoma cruzi Y intracellular amastigote transfected in monkey LLC-MK2 cells; format: toxicity, cell-based; conditions: read-out: Ratio IC50
Trypanosoma cruzi [11] = assay: Antitrypanosomal activity against Trypanosoma cruzi Y […] transfected in monkey LLC-MK2 cells assessed as inhibition of […] viability measured after 24 hrs by Neubauer chamber based analysis; format: functional, organism-based; conditions: LLC-MK2, 24 h
Trypanosoma cruzi [12] = assay: Antitrypanosomal activity against Trypanosoma cruzi Y intracellular amastigote transfected in monkey LLC-MK2 cells assessed as inhibition of intracellular amastigote viability measured after 24 hrs by Neubauer chamber based analysis; format: functional, organism-based; conditions: LLC-MK2, 24 h
[13] = Selectivity index, ratio of IC50 for cytotoxicity against African green monkey Vero cells to IC50 for antitrypanosomal activity against Trypanosoma cruzi Dm28c […] transfected in African green monkey Vero cells; format: toxicity, cell-based; conditions: read-out: Ratio IC50
Trypanosoma cruzi [14] = assay: Antitrypanosomal activity against Trypanosoma cruzi Dm28c […] transfected in African green monkey Vero cells assessed as inhibition of […] viability measured after 24 hrs by MTT assay; format: functional, organism-based
[15] = Selectivity index, ratio of IC50 for cytotoxicity against African green monkey Vero cells to IC50 for antitrypanosomal activity against Trypanosoma cruzi Dm28c intracellular amastigotes transfected in African green monkey Vero cells; format: toxicity, cell-based; conditions: read-out: Ratio IC50
Trypanosoma cruzi [16] = assay: Antitrypanosomal activity against Trypanosoma cruzi Dm28c intracellular amastigotes transfected in African green monkey Vero cells assessed as inhibition of intracellular amastigotes viability measured after 24 hrs by MTT assay; format: functional, organism-based

O=C(CS/C(C(=O)c1ccc2ccccc2c1)=C1\C=C(c2ccc(O)cc2)SS1)c1ccc2ccccc2c1
selectivity ratio [1]: 12.8 | IC50 (Trypanosoma cruzi [2]): 4900 nM

O=C(OCCCCCCCCCCCC[P+](c1ccccc1)(c1ccccc1)c1ccccc1)c1cc(O)c(O)c(O)c1
EC50 (Trypanosoma cruzi [3]): 1000 nM

CCOc1cccc2sc(N(Cc3cccnc3)C(=O)C3CCCCC3)nc12
IC50 (Trypanosoma cruzi [4]): 160 nM

COc1cccc(Nc2c(C#N)cnc3ccc(Cl)cc23)c1
IC50 (Trypanosoma cruzi [5]): < 1000 nM | inhibition at 10 µM (Trypanosoma cruzi [6]): 65%

C=CCn1c(C(=O)N2CCN(C/C=C/c3ccccc3)CC2)cs\c1=N/N=C/C=C/c1ccco1
selectivity ratio [7]: 433 | IC50 (Trypanosoma cruzi [8]): 700 nM

N/C(S)=N/N=C/c1ccc([N+](=O)[O-])cc1
selectivity ratio [9]: 26.2 | selectivity ratio [10]: 11.6 | IC50 (Trypanosoma cruzi [11]): 1430 nM | IC50 (Trypanosoma cruzi [12]): 11800 nM

O=C(OCCCCCCCCCC[P+](c1ccccc1)(c1ccccc1)c1ccccc1)c1cc(O)c(O)c(O)c1
EC50 (Trypanosoma cruzi [3]): 1000 nM

CC1(C(CC(=O)/C=C/c2ccccc2)c2ccccc2)N=C(c2ccccc2)OC1=O (configuration not stated)
selectivity ratio [13]: 6.74 | IC50 (Trypanosoma cruzi [14]): 33000 nM | selectivity ratio [15]: 95 | IC50 (Trypanosoma cruzi [16]): 2340 nM
